From patent US20160184274A1, “Methods for inhibiting mesenchymal phenotype after epithelial-to-mesenchymal transition” (Fibrostatin, S.L., priority 2014, published 2016)
Entries after “also recorded” stand apart in the source; their conditions may differ.

Legend:
[1] = system: 4T1 mouse breast cancer cells; experiment: Murine breast cancer 4T1 model; assay type: in vivo, Balb/c mice
Method: FIG. 10. […] Control, n=43; T12, n=18. FIG. 11. T12 targets circulating 4T1 cancer cells. A, Balb/c female mice were inoculated with 4T1 mouse breast cancer cells at mammary fat pads. At day 20 after cell inoculation mice were subjected to PET analysis for metastases detection. White arrows denote metastatic foci at the spinal cord. B, Balb/c female from A were either left untreated (Control), or were treated with T12 in drinking water from day 20. At day 35 blood was seeded in the presence of 6-thioguanine and circulating 4T1 cells selected and further cultured. Shown are phase contrast images of the resulting cultures acquired with an inverted microscope. […] C, circulating 4T1 cells recovered as in B and 4T1 cells were cultured in standard 2D cultures and subjected to RNA extraction, and RNA samples were analyzed by RT-qPCR. Shown are the relative quantities (RQ) of the indicated mRNAs of circulating 4T1 cells using levels from 4T1 cells as reference. D, the cultures in C were treated with the indicated concentrations of T12 for 24 h. Dead cells in culture media were quantified by measuring cell size using an automated cell counter (Moxi Z, Orflo). The number of dead cells in the culture media of the respective untreated cells (−) was used as reference. E, circulating 4T1 cells recovered as in B or 4T1 cells were cultured in ultra-low binding plates and treated with the indicated concentrations of T12 for 9 days, cells were lysed and analyzed by Western blot using antibodies specific for activated caspase 3. The levels of GAPDH were determined for loading control purposes. For other assays, 10^4 4 T1 cells were suspended in 10 μl PBS and subcutaneously injected into the 4th mammary fat pad of 4-week-old Balb/c female mice, and either left untreated or treated since the inoculation day with T12 (12 mg/kg/day in drinking water). Primary tumors formed and dimensions were periodically measured with a caliper.

[2] = system: A7C11; experiment: Collagen IV expression in A7C11; assay type: cell-based, murine; settings: data not shown
[3] = system: A549 tumors with epithelial phenotype; settings: T12 20 mg/kg/day in drinking water, alone or with doxorubicin 4 mg/kg/week i.p.; previously reported, WO/2014/006020; cited from earlier work
[4] = system: stem A549 cells; settings: WO/2014/006020; cited from earlier work
[5] = system: mesenchymal A549 spheroids; experiment: Spheroid viability / cell death by LDH activity in media; assay type: cell-based, Human; settings: T12 10 μM for the last 2 days of 4-day EMT induction; FIG. 7B
Method: FIG. 7. T12 disrupts collagen IV network and reduces A549 mesenchymal spheroids viability. A549 spheroids were subjected to EMT induction with TGF-β and TNF-α during 4 days, and treated with T12 (10 μM) or maintained untreated (Cont) for the last 2 days. In A, spheroids were analyzed by immunofluorescence confocal microscopy with anti-α1α2 (IV) antibodies (COL4, white) and DAPI to visualize the cell nuclei (grey). In B, the culture media of the spheroids in A were used for assessing cell death by measuring LDH activity. […] Represented are Means (±SEM).
For some purposes, culture media were cleared by centrifugation (500×g, 10 min, room temperature) and LDH activity in supernatants determined with Lactate Dehydrogenase Activity Assay Kit (Sigma-Aldrich).
Three-dimensional spheroid cultures of A549 cells were obtained using a hanging droplet method (Kelm et al., 2003. Biotechnol. Bioeng. 83: 173-180.; Kumar et al., 2013. PLoS One. 8: e68597). Briefly, cells were grown to approximately 80% confluence on adherent tissue-culture flasks. Then cells were trypsinized, dispersed in DMEM/10% FBS, and counted using an automated cell counter (MOXI® Z, Orflo). The cell suspension was diluted to a 10^6 cells/mL-concentration, and 25 μl of the cell suspension were pipetted onto the underside of a sterile 10-cm tissue culture plate lid. Each lid was loaded with approximately 55 droplets. […]

In the case of `COc1ccc(-c2ccc(-c3cccc(C)c3)c(C)c2)c(CCC(=O)O)c1` [T12, 3-[4″-methoxy-3,2′-dimethyl-(1,1′;4′,1″)terphenyl-2″-yl] propionic acid], the “tumor volume (anti-tumor activity)” value ([1]; T12 12 mg/kg/day in drinking water from inoculation, FIG. 10B, 12 mg/kg/day) is reported as “displayed anti-tumor activity; also recorded: differences are statistically significant”, the “superficial metastasis per lung” value ([1]; T12 12 mg/kg/day in drinking water, day 25, FIG. 10C, 12 mg/kg/day) is reported as “inhibited metastasis formation; also recorded: Differences are statistically significant” and the “recovery of circulating 4T1 tumor cells from blood” value ([1]; T12 in drinking water from day 20, blood seeded at day 35 with 6-thioguanine, FIG. 11B) is reported as “impeded the isolation of circulating 4T1 tumor cells; also recorded: could not be recovered”. The “collagen IV expression” value [2] was “significantly reduced collagen IV expression”, the “tumor growth (relative tumor volume)” value [3] was “required the synergistic action of doxorubicin to efficiently inhibit tumor growth; also recorded: synergistic with doxorubicin” and the “doxorubicin accumulation and viability” value [4] was “accumulated doxorubicin reducing viability”. For the same molecule, the “cell viability (LDH activity in culture media)” value [5] was “reduced cell viability”.
